Results on 21 compounds are retold here after patent US20250206745A1, “PYRROLOPYRIDAZINE DERIVATIVES AND RELATED USES” (NodThera Limited, priority 2023, published 2025).

A word on the IC50: it is the concentration at which inhibition is half-maximal.

Assay [1] has as its system IL-1β release upon NLRP3 activation in phorbol 12-myristate 13-acetate (PMA)-differentiated THP-1 cells. Briefly: THP-1 IC50 Determination Assay. It counts as cell-based. As to conditions: Homo sapiens, inhibition of IL-1β release, LPS, nigericin, ELISA. The method, then: The compounds of the present disclosure were tested for their inhibitory activity against IL-1β release upon NLRP3 activation in phorbol 12-myristate 13-acetate (PMA)-differentiated THP-1 cells.
THP-1 cells stored in liquid nitrogen were thawed in a 37° C. water bath. The cells were added into complete RPMI 1640 medium (FBS (56 mL), 100× Penicillin-Streptomycin (5.6 mL) and 0.05 mM 2-Mercaptoethanol in RPMI 1640 Medium (500 mL)) and centrifuged for 5 min at 1000 rpm. The supernatant was discarded and the cells resuspended into new cell culture medium for culturing. Cells were cultured in cell culture medium and passaged every 3-4 days to maintain cell density between 4×10^5 and 1.5×10^6 cells/mL. The cells were diluted to 0.8×10^6 cells/mL and grown in a T150 flask with PMA (final concentration 5 ng/mL). The flask was incubated in a 37° C. incubator with a humidified atmosphere of 5% CO2 for −40 hours. After −40 hours of PMA differentiation, the flask was washed with DPBS. Cells were digested with Trypsin LE for about 5 min at room temperature, and digestion was terminated using complete RPMI 1640 medium. Cells were centrifuged and resuspended (1000 rpm, 3 min). The supernatant was discarded and cells washed with DPBS, centrifuged and resuspended cells (1000 rpm, 5 min). Cells were plated at 30,000 cells/well in a 384-well PP plate and treated with 25 ng/mL LPS solution diluted in serum-free medium (45 μL). The plate was incubated in a 37° C. incubator with a humidified atmosphere of 5% CO2 for 2 hours. Compounds (from 10 mM DMSO solution) were dispensed and serially diluted by 1:3 eight times, with final 0.5% DMSO concentration. NLRP3 inflammasome was activated with nigericin (5 μL), the plate was centrifuged (1000 rpm, 30 s) and incubated in a 37° C. incubator with a humidified atmosphere of […] for 2 hours. 35 μL/well of supernatant was removed and IL-1β levels determined by ELISA assay (Mabtech 3416-1H-20) according to the manufacturer's instructions.
For orientation: In an ELISA, binding on a coated surface is turned into a signal by an enzyme label.

Assay [2] concerns IL-1β release upon NLRP3 activation in peripheral blood mononuclear cells (PBMC). The assay is described as follows: PBMC IC50 Determination Assay. As to conditions: Homo sapiens; inhibition of IL-1β release; PBMC primed with LPS, stimulated with ATP or nigericin; ELISA or HTRF. It is filed as cell-based. The method, then:
The compounds of the present disclosure were tested for their inhibitory activity against IL-1β release upon NLRP3 activation in peripheral blood mononuclear cells (PBMC).
Protocol A. PBMC were isolated from buffy coats by density gradient centrifugation on Histopaque-1077 (Sigma, cat no. 10771). Isolated cells were seeded into the wells of a 96-well plate and incubated for 3 h with lipopolysaccharide (LPS). Following medium exchange, the compounds of the present disclosure were added (a single compound per well) and the cells were incubated for 30 min. Next, the cells were stimulated either with ATP (5 mM) or nigericin (10 μM) for 1 h and the cell culture media from the wells were collected for further analysis.
The release of IL-1β into the media was determined by a quantitative detection of IL-1β in the media using an IL-1β enzyme-linked immunosorbent assay (ELISA) Ready-SET-Go!, eBioscience cat. No. 88-7261-88. Briefly, in a first step, high affinity binding plates (Corning, Costar 9018 or NUNC Maxisorp Cat No. 44-2404) were coated overnight at 4° C. with specific capture antibody included in the kit (anti-human IL-1β ref. 14-7018-68). Subsequently, plates were blocked with blocking buffer for 1 h at room temperature (rt) and after washing with a buffer (PBS with 0.05% Tween-20) incubated with protein standard and culture media. After 2 h of incubation at rt, plates were washed and incubated with biotinylated detection antibody included in the kit (anti-human IL-1β Biotin ref. 33-7110-68) for 1 h at rt. Plates were washed and incubated with HRP-streptavidin for 30 min at rt and washed again. The signal was developed after addition of 3,3′,5,5′-tetramethylbenzidine-peroxidase (TMB) until colour appeared and the reaction was stopped by 2 M H2SO4. A microplate spectrophotometer (BioTek) was used to detect signals with 450 nm. The detection range of IL-1β ELISA was […].
Protocol B. PBMC were isolated from buffy coats by density gradient centrifugation on Histopaque-1077 (Sigma, cat no. 10771). Isolated cells were seeded into the wells (280,000 cells/well) of a 96-well plate and incubated for 3 h with lipopolysaccharide (LPS, 1 μg/mL diluted 1000× from a 1 mg/mL stock solution). The compounds of the present disclosure were added (a single compound per well) and the cells were incubated for 30 min. Next, the cells were stimulated with ATP (5 mM final concentration diluted 20× from a 100 mM stock solution) for 1 h and the cell culture media from the wells were collected for further analysis.
The release of IL-1β into the media was determined by quantitative detection of IL-1β in the media using HTRF®, CisBio cat. No. 62HIL1BPEH. Briefly, cell culture supernatant were dispensed directly into the assay plate containing antibodies labelled with the HTRF® donor and acceptor. A microplate spectrophotometer (BMG) was used to detect signals at 655 nm and 620 nm. The detection range of IL-1β HTRF® was 39-6500 pg/mL.

Structures can show the parent of a compound that is named as a salt.

For the compound `Cc1cc(Cl)cc(O)c1-c1cc2ccn(C[C@@H]3CCN(C)C[C@@H]3F)c2nn1` (relative stereo) [Compound 24, Cis-5-chloro-2-{7-[(3-fluoro-1-methylpiperidin-4-yl)methyl]-7H-pyrrolo[2,3-c]pyridazin-3-yl}-3-methylphenol], the results for the IC50 in assay [1] and in assay [2] were 0.1 to 0.3 µM and 0.03 to 0.1 µM, respectively.

With `Cc1cc(Cl)cc(O)c1-c1cc2ccn(C[C@@H]3CCN(C)C[C@H]3F)c2nn1` (relative stereo) [Compound 51, Trans-5-chloro-2-{7-[(3-fluoro-1-methylpiperidin-4-yl)methyl]-7H-pyrrolo[2,3-c]pyridazin-3-yl}-3-methylphenol hydrochloride], the IC50 in assay [1] is 1 to 3 µM; in assay [2], 0.1 to 0.3 µM.

For `Cc1cc(C(F)(F)F)cc(O)c1-c1cc2ccn(CC3CCOCC3)c2nn1` [Compound 1, 3-Methyl-2-{7-[(oxan-4-yl)methyl]-7H-pyrrolo[2,3-c]pyridazin-3-yl}-5-(trifluoromethyl)phenol], the IC50 is 0.3 to 1 µM in assay [1] and 0.1 to 0.3 µM in assay [2].

For `Cc1cc(C(F)(F)F)cc(O)c1-c1cc2ccn(CC3CCCO3)c2nn1` (stereo not shown) [Compound 2, 3-Methyl-2-{7-[(oxolan-2-yl)methyl]-7H-pyrrolo[2,3-c]pyridazin-3-yl}-5-(trifluoromethyl)phenol], the results for the IC50 in assay [1] and in assay [2] were 0.1 to 0.3 µM and 0.3 to 1 µM, respectively.

Consider `Cc1cc(C(F)(F)F)cc(O)c1-c1cc2ccn(CC3CCOC3)c2nn1` (stereo not shown) [Compound 3, 3-Methyl-2-{7-[(oxolan-3-yl)methyl]-7H-pyrrolo[2,3-c]pyridazin-3-yl}-5-(trifluoromethyl)phenol], for which the 50% inhibitory concentration (IC50) in assay [1] and in assay [2] was 0.1 to 0.3 µM throughout.

For `Cc1cc(C(F)(F)F)cc(O)c1-c1cc2ccn(CC3CCN(C)CC3)c2nn1` [Compound 4, 3-Methyl-2-{7-[(1-methylpiperidin-4-yl)methyl]-7H-pyrrolo[2,3-c]pyridazin-3-yl}-5-(trifluoromethyl)phenol], the IC50 in assay [1] and in assay [2] was 0.03 to 0.1 µM in each case.

For the compound `Cc1cc(C(F)(F)F)cc(O)c1-c1cc2cc[nH]c2nn1` [Compound 5, 3-Methyl-2-{7H-pyrrolo[2,3-c]pyridazin-3-yl}-5-(trifluoromethyl)phenol], the IC50 in assay [1] and in assay [2] was 0.3 to 1 µM each time.

Turning to `Cc1cc(C(F)(F)F)cc(O)c1-c1cc2ccn(C)c2nn1` [Compound 6, 3-Methyl-2-{7-methyl-7H-pyrrolo[2,3-c]pyridazin-3-yl}-5-(trifluoromethyl)phenol], the IC50 in assay [1] and in assay [2] was 0.3 to 1 µM in each case.

In the case of `Cc1cc(Cl)cc(O)c1-c1cc2ccn(CC3CCN(CC(F)(F)F)CC3)c2nn1` [Compound 7, 5-Chloro-3-methyl-2-(7-{[1-(2,2,2-trifluoroethyl)piperidin-4-yl]methyl}-7H-pyrrolo[2,3-c]pyridazin-3-yl)phenol], the IC50 in assay [1] and in assay [2] was 0.3 to 1 µM in each case.

On to `Cc1cc(Cl)cc(O)c1-c1cc2ccn(CC3CCCN(C)C3)c2nn1` (stereo not shown) [Compound 8, 5-Chloro-3-methyl-2-{7-[(1-methylpiperidin-3-yl)methyl]-7H-pyrrolo[2,3-c]pyridazin-3-yl}phenol], for which the results for the IC50 in assay [1] and in assay [2] were 0.1 to 0.3 µM and 0.03 to 0.1 µM, respectively.

As to `Cc1cc(Cl)cc(O)c1-c1cc2ccn(CC(=O)N(C)[C@@H]3CCOC3)c2nn1` [Compound 60, 2-[3-(4-Chloro-2-hydroxy-6-methylphenyl)-7H-pyrrolo[2,3-c]pyridazin-7-yl]-N-methyl-N-[(3R)-oxolan-3-yl]acetamide], the IC50 in assay [1] fell in the range of 0.1 to 0.3 µM.

`Cc1cc(Cl)cc(O)c1-c1cc2ccn(CC(=O)N(C)[C@H]3CCN(C)C3)c2nn1` [Compound 61, 2-[3-(4-Chloro-2-hydroxy-6-methylphenyl)-7H-pyrrolo[2,3-c]pyridazin-7-yl]-N-methyl-N-[(3S)-1-methylpyrrolidin-3-yl]acetamide hydrochloride]: the IC50 in assay [1] lay within 0.1 to 0.3 µM.

`Cc1cc(Cl)cc(O)c1-c1cc2ccn(CC(=O)N(C)[C@@H]3CCN(C)C3)c2nn1` [Compound 62, 2-[3-(4-Chloro-2-hydroxy-6-methylphenyl)-7H-pyrrolo[2,3-c]pyridazin-7-yl]-N-methyl-N-[(3R)-1-methylpyrrolidin-3-yl]acetamide hydrochloride] yielded an IC50 in assay [1] of 0.3 to 1 µM.

Compound `Cc1cc(Cl)cc(O)c1-c1cc2ccn(CC3CC(=O)N(C)C3)c2nn1` (stereo not shown) [Compound 64, 4-{[3-(4-Chloro-2-hydroxy-6-methylphenyl)-7H-pyrrolo[2,3-c]pyridazin-7-yl]methyl}-1-methylpyrrolidin-2-one] came in with an IC50 in assay [1] of 0.1 to 0.3 µM.

For `Cc1cc(Cl)cc(O)c1-c1cc2ccn(CC3CCN(C)C3=O)c2nn1` (stereo not shown) [Compound 66, 3-{[3-(4-Chloro-2-hydroxy-6-methylphenyl)-7H-pyrrolo[2,3-c]pyridazin-7-yl]methyl}-1-methylpyrrolidin-2-one], the IC50 in assay [1] was in the range of 0.3 to 1 µM.

Consider `Cc1cc(Cl)cc(O)c1-c1cc2ccn(C3CCN(C)CC3)c2nn1` [Compound 67, 5-Chloro-3-methyl-2-[7-(1-methylpiperidin-4-yl)-7H-pyrrolo[2,3-c]pyridazin-3-yl]phenol], for which, in assay [1], the IC50 fell in the range of 0.3 to 1 µM.

For the compound `CN1CCC(Cn2ccc3cc(-c4ccc(C#N)cc4O)nnc32)CC1` [Compound 68, 3-Hydroxy-4-{7-[(1-methylpiperidin-4-yl)methyl]-7H-pyrrolo[2,3-c]pyridazin-3-yl}benzonitrile], the IC50 in assay [1] was 3 to 10 µM.

In the case of `Cc1cc(Cl)cc(O)c1-c1cc2ccn([C@@H]3CCN(C)C3=O)c2nn1` [Compound 69, (3R)-3-[3-(4-Chloro-2-hydroxy-6-methylphenyl)-7H-pyrrolo[2,3-c]pyridazin-7-yl]-1-methylpyrrolidin-2-one], in assay [1], the IC50 was in the range of 0.3 to 1 µM.

On to `Cc1cc(Cl)cc(O)c1-c1cc2ccn(CC3CCC(=O)N(C)C3)c2nn1` (stereo not shown) [Compound 70, 5-{[3-(4-Chloro-2-hydroxy-6-methylphenyl)-7H-pyrrolo[2,3-c]pyridazin-7-yl]methyl}-1-methylpiperidin-2-one], for which the IC50 in assay [1] lay in the range of 0.1 to 0.3 µM.

Compound `Cc1cc(Cl)cc(O)c1-c1cc2ncn(C[C@@H]3CCCN(C)C3)c2nn1` [Compound 79, 5-Chloro-3-methyl-2-(7-{[(3R)-1-methylpiperidin-3-yl]methyl}-7H-imidazo[4,5-c]pyridazin-3-yl)phenol hydrochloride] showed an IC50 in assay [1] of 0.03 to 0.1 µM.

In assay [1], `Cc1cc(Cl)cc(O)c1-c1cc2ncn(C[C@H]3CCCN(C)C3)c2nn1` [Compound 80, 5-Chloro-3-methyl-2-(7-{[(3S)-1-methylpiperidin-3-yl]methyl}-7H-imidazo[4,5-c]pyridazin-3-yl)phenol hydrochloride] yielded an IC50 of 0.1 to 0.3 µM.
